From PubChem BioAssay AID1671246

Target: Casein kinase I isoform gamma-1 (Homo sapiens) (UniProt Q9HCP0)
Test: CSNK1G1 kinase inhibitors, dose response, biochemical, Z'-LYTE, FRET, protease-coupled, direct format (AID 1671246)
Settings: Z'-LYTE FRET kinase activity, recombinant CSNK1G1

Chain of Casein kinase I isoform gamma-1 (Homo sapiens) (Q9HCP0 whole entry, looked up, canonical isoform): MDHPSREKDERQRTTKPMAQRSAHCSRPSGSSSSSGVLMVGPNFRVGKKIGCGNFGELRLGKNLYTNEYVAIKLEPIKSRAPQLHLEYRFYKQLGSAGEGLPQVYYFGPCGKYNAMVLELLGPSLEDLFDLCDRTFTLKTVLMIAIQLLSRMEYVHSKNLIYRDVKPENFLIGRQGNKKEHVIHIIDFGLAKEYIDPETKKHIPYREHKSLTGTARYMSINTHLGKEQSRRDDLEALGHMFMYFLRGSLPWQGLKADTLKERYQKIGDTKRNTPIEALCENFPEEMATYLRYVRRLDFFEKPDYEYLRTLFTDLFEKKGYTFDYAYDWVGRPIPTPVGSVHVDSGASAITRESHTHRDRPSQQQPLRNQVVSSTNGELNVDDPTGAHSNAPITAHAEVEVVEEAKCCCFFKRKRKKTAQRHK

Compound CN1C(=O)C2(Cc3cn(C45CC67SSC(CO)(C(=O)N6C4Nc4ccccc45)N(C)C7=O)c4ccccc34)SSC1(CO)C(=O)N2C (stereo unspecified) has an IC50 of 109 nM.
